Source: patent US20250032590A1, “PARATHYROID HORMONE COMPOUNDS IN THE TREATMENT OF HYPOPARATHYROIDISM” (AMOLYT PHARMA, priority 2023, published 2025)
“Also recorded” adds a separate entry of the source. No end group written: not given here.

Columns and labels:
PTX mice = assay: Serum calcium after single dosing in HP PTX mouse model (Example 1); assay type: in vivo; details: compared with PTH (1-34)
From the text: In FIG. 1, the black line indicates the impact of PTX in mice, resulting in serum calcium levels well below normal levels.

[1] = tested on: subjects with hypoparathyroidism (HP); assay: Open-label multiple ascending dose study plus 2-month extension in subjects with hypoparathyroidism (Examples 10, 11); assay type: in vivo, human
From the text: Part C: Part C of the assessment was an open-label multiple ascending dose (MAD) study in male or female subjects with hypoparathyroidism (HP) who are on standard or care treatment (treatment with oral calcium and active vitamin D) to evaluate the safety and tolerability, PK, and PD of AZP-3601. Up to 2 cohorts of approximately 12 patients each were planned for this part of the study. Prior to the treatment period, there was an optimization period of up to 8 weeks during which doses of oral calcium and active vitamin D were adjusted to achieve a baseline target range of albumin-corrected serum calcium (7.8 to 9.0 mg/dL, ie, 1.95 to 2.25 mmol/L) and therefore ensuring a close baseline for all patients. During this optimization period, any serum 25-hydroxy vitamin D (native vitamin D) and/or magnesium deficiencies were corrected. During the treatment period, patients in Part C received AZP-3601 for 28 days as daily sc abdominal injections (with rotation of injection sites every dosing day). Doses of oral calcium and active vitamin D supplements were reduced during the initial 14 days of treatment while maintaining albumin-corrected serum calcium in the target range (7.8 to 9.0 mg/dL, ie, 1.95 to 2.25 mmol/L). Reductions of both oral calcium and active vitamin D supplements were performed using a staged approach until the active vitamin D dose were eliminated and the oral calcium dose were reduced to or below 500 mg/day. Based on animal data, serum calcium was expected to increase progressively following repeated administration of AZP-3601 and PD steady state was expected to be observed within the first 5 days of dosing. Staggered reductions of doses of oral calcium and active vitamin D supplements were therefore performed at near-steady state based on the predose albumin-corrected serum calcium value. The following treatments are administered in Part C in an open-label fashion: • Cohort C1: multiple sc doses of 20 mg AZP-3601 (n=12) qd from Day 1 to Day 28 (dose increase of AZP-3601 to 40 mg was allowed from Day 14 onwards) • Cohort C2: multiple sc doses of a fixed dose of 10 mg AZP-3601 (n=12) qd from Day 1 to Day 28 (dose of AZP-3601 may be increased at a fixed dose of 20 mg from Day 14 onwards)
During the extension phase, patients had their AZP-3601 dose increased in increments of 10 mg to a maximum dose of 60 mg (Cohort 1) and of 80 mg (Cohort 2).
The extension phase started immediately following Day 28 visit of the Main treatment period. Patients received AZP-3601 for 56 days (2 months) as daily sc injections from Day 29 onwards (with rotation of injection sites each day of administration). The goal was to optimize AZP-3601 dosing across a dose range while doses of oral calcium and active vitamin D were as low as safely possible and albumin-corrected serum calcium was maintained within the target range of 7.8 to 9.0 mg/dL (1.95 to 2.25 mmol/L). For patients who were taking minimal or no supplemental calcium (≤500 mg/day) and no vitamin D on Day 28, the AZP-3601 dose from the previous 14 days of treatment (Part C, Main Treatment Period) was maintained and adjusted when needed during the Extension Phase. For patients who were still taking active vitamin D and/or more than 500 mg/day of oral calcium on Day 28, a progressive reduction of supplements was carried out while increasing the dose of AZP-3601. […]

[2] = Plasma detectability after single injection in cynomolgus monkeys; assay type: in vivo, cynomolgus monkey
Description: To further examine how the potent and sustained biological activity induced by AZP-3601 could translate into potential clinical benefit for […] patients, its activity was examined in normal cynomolgus monkeys, a species much closer to humans and the most relevant for first in human dose-selection. Single injections of AZP-3601 were administered to normal cynomolgus monkeys. […] The dissociation between pharmacokinetic profile and pharmacodynamic effect is due to the short circulating half-life of AZP-3601 as opposed to the prolonged signaling caused by AZP-3601's potent interaction with the R^0 conformation of the PTH1 receptor.

non-human primates = details: 10.7 μg/kg or 42.7 μg/kg; cited from earlier work
Cynomolgus monkeys [3] = assay: 13-week daily sc study in non-human primates: ex-vivo BMD (DXA), bone histopathology (Example 8); set-up: species or system cynomolgus monkey; details: Cynomolgus monkeys, 1, 2.5 or 10 μg/kg daily sc, 13 weeks
Description: (§1) To further examine the effect of chronic AZP-3601 treatment on bone, both 13-week and 39-week studies were conducted in non-human primates (NHP), which are considered a relevant species with regard to AZP-3601 effects on serum calcium. Groups of 3 or 4 Cynomolgus monkeys of each sex were given daily subcutaneous injections of either vehicle or AZP-3601 at doses of 1, 2.5 or 10 μg/kg for either 13 or 39 weeks, as outlined in Table 2.
• Ex-vivo bone mineral density (BMD) by dual-energy X-ray absorptiometry (DXA) at week 13; • Histopathological examination of bone at week 13.
(§2) At the end of the 13-week study, right femur, right tibia and the L4 lumbar vertebra were collected from 3 animals/group/sex and bone mineral density (BMD) was measured by dual-energy X-ray absorptiometry. The left femur was submitted to histopathological examination. […] In the 39-week study, blood samples were collected from 4 animals/group/sex prior to and during weeks 4, 8, 13, 26 and 39 of treatment for measurement of bone biomarkers. In-life BMD of left femur, left tibia and L4 lumbar vertebra was measured by quantitative computed tomography (qCT) prior to and during weeks 26 and 39 of treatment (FIGS. 9A, 9B, 9C, 9D, 9E and 9F). At the end of the treatment period, femurs were processed for histopathological examination.

TPTX rats [4] = assay: Urinary calcium, repeated daily sc dosing in HP TPTX rat model (Example 4); assay type: in vivo; details: 30.7 μg/kg/day
Description: To examine the effect of repeated dosing with AZP-3601 on urinary calcium levels, TPTX rats were treated with daily subcutaneous injection of AZP-3601 with doses ranging from 3.8 to 30.7 μg/kg/day. As additional controls, separate groups of TPTX rats received daily injections of either natural PTH (1-84) or the vehicle, and a group of normal (with intact thyroid and parathyroid glands, or sham) rats were injected with vehicle. […] The observed increase in urinary calcium excretion with the high dose was a normal kidney response to clear excess blood calcium (FIG. 4).

TPTX rats [5] = assay: Serum calcium and phosphate, 28-day daily sc dosing in HP TPTX rat model (Example 2); assay type: in vivo; details: 7.7 μg/kg/day
Description: Thyroid-parathyroidectomized, or TPTX, rats were treated with daily subcutaneous injection of AZP-3601 at doses ranging from 3.8 μg/kg/day to 30.7 μg/kg/day. Treatment was continued for 28 days. […] The increase in calcium accumulated over time (over the first 15 to 21 days), but became more constant thereafter, indicating the development of a steady-state effect (FIG. 2). Due to the cumulative effect, lower doses of AZP-3601 were required to eventually increase blood calcium levels into the normal range as compared to the dose required with a single injection.

Cynomolgus monkeys [6] = assay: 39-week daily sc study in non-human primates: bone biomarkers, BMD (qCT), histopathology (Example 8); assay type: in vivo, cynomolgus monkey
Description: as §1
• Serum bone biomarkers at baseline and weeks 4, 8, 13, 26 and 39; • In-life BMD by quantitative computed tomography (qCT) at baseline and weeks 26 and 39; • Histopathological examination of bone at week 39.
as §2
Prior to treatment, BMD was homogeneous among all groups for all the three bone sites examined.

[7] = HP subjects of both cohorts, 84 days
[8] = HP subjects, various bone sites, including patients with osteopenia
[9] = Cynomolgus monkeys, 1, 2.5 or 10 μg/kg daily sc, weeks 4 to 39

half-life (PTX mice): equally short half-life as PTH (1-34)
bone mineral density (BMD) [1, 7]: remains stable
trabecular bone score (TBS) [1, 7]: remains stable
T-score [1, 8]: remain stable
Z-score [1, 8]: remain stable
serum calcium at the highest dose (TPTX rats [4]): induced overt hypercalcemia
histological examination of the femur (Cynomolgus monkeys [6]; Cynomolgus monkeys, week 39): no noteworthy findings
Sequence: AVAEIQLMHQRAKWIQDARRRAFLHKLIAEIHTAEI [AZP-3601, M-PTH(1-14)/PTHrP(15-36)]
mean bone markers relative to upper limit of normal ([1]; HP subjects, 84 days): never increased either mean bone marker above the upper limit of normal level
detectability in plasma post-dosing [2]: detectable in plasma for only up to one hour post-dosing
serum calcium at highest dose levels (non-human primates): induced significant hypercalcemia
BMD of femur, tibia and L4 lumbar vertebra by DXA (Cynomolgus monkeys [3]): no evidence of any treatment-related effect
histopathological examination of femur (Cynomolgus monkeys [3]): no evidence of any treatment-related effect
change in bone at the optimal dose (TPTX rats [5]): without producing any significant change in bone
anabolic bone biomarker P1NP (Cynomolgus monkeys [6]; [9]): no treatment-related changes; also recorded: no significant effect on either anabolic or catabolic bone biomarkers
catabolic bone biomarker CTx (Cynomolgus monkeys [6]; [9]): no treatment-related changes; also recorded: no significant effect on either anabolic or catabolic bone biomarkers
in-life BMD of femur, tibia and L4 lumbar vertebra by qCT (Cynomolgus monkeys [6]; Cynomolgus monkeys, 39-week study, versus pre-treatment values): no statistically significant changes in BMD
